Measured values from patent US20210369595A1, “Cosmetic composition comprising an aqueous extract of rose fruit” (L V M H RECHERCHE, priority 2018, published 2021).

How the values were obtained:
Emilin 1 (Emilin1) = experiment: TLDA gene expression in NHF: Emilin1; type: cell-based, human
Method: (§1) The cell culture medium is removed and 250 μL of RLT lysis buffer (provided in the Nucleospin RNA trace kit, Macherey-Nagel) is added. The cells are scraped with a Cell Scraper and then the cell lysate is recovered in a 1.2 mL deepwell (provided in the Nucleospin RNA kit). The total RNAs are extracted according to the defined protocols.
(§2) The total RNA solutions obtained are assayed, and their quality checked, using a microplate reader, the spectrostarNANO (BMG Labtech) coupled to the MicrolabSTAR. This apparatus is connected to the computer controlling the Robotics platform and has the specific software for the analysis of the results (MARS software). The technique requires a 384-well microplate (LoBase), a positive control (RNA 250, AM7155, Thermofisher) to validate the pipetting performed by the robot as well as the values generated by the spectrostarNANO reader. • Synthesis of complementary DNA […]
(§3) Real-time quantitative PCR can be exploited if its efficiency is between 90% and 110%. For each sample, the number of cycles at which the signal appears is determined by the SDS 2.3 software. […]
(§4) In the TLDA RT-PCR method, quantification is performed using the comparative method of ΔΔCt. The relative quantification (RQ) values obtained correspond to the amplitude level (x times more or less than the control) of the expression compared with our control, here the non-irradiated. […]

Fibrillin 1 (FBN1) = experiment: TLDA gene expression in NHF: FBN1; type: cell-based, human; conditions: Vit C 50 μg/mL (positive control), control = 1
Method: as §1, §2, §3, §4

[1] = test system: Procollagen C endopeptidase enhancer (PCOLCE); experiment: TLDA gene expression in NHF: PCOLCE; type: cell-based, human; conditions: Vit C 50 μg/mL (positive control), control = 1
Method: as §1, §2, §3, §4

[2] = test system: Lysyl oxidase like 1 (LOXL1); experiment: TLDA gene expression in NHF: LOXL1; type: cell-based, human; conditions: Vit C 50 μg/mL (positive control), control = 1
Method: as §1, §2, §3, §4

Elastin (ELN) = experiment: TLDA gene expression in NHF: ELN; type: cell-based, human; conditions: Vit C 50 μg/mL (positive control), control = 1
Method: as §1, §2, §3, §4

Collagen 3 (COL3A1) = experiment: TLDA gene expression in NHF: COL3A1; type: cell-based, human
Method: as §1, §2, §3, §4

Collagen 5 (COL5A1) = experiment: TLDA gene expression in NHF: COL5A1; type: cell-based, human
Method: as §1, §2, §3, §4

Collagen 1 (COL1A1) = experiment: TLDA gene expression in normal human fibroblasts (NHF): COL1A1; type: cell-based
Method: as §1, §2, §3, §4

[3] = test system: Matrix Metalloproteinase 3 (MMP3); experiment: TLDA gene expression in NHF: MMP3; type: cell-based, human; conditions: Vit C 50 μg/mL (positive control), control = 1
Method: as §1, §2, §3, §4

[4] = Vit C 50 μg/mL (positive control), control = 1

PCOLCE expression, RQ [1]: 1.156 | LOXL1 expression, RQ [2]: 1.202 | MMP3 expression, RQ [3]: 1.205
Compound: O=C1O[C@H]([C@@H](O)CO)C(O)=C1O [Vit C]
Emilin1 expression, RQ (Emilin 1 (Emilin1); [4]): 2.509 | increase of Emilin 1 expression (Emilin 1 (Emilin1); Vit C (50 μg/mL)): +151% | FBN1 expression, RQ (Fibrillin 1 (FBN1)): 0.989 | ELN expression, RQ (Elastin (ELN)): 1.016 | COL3A1 expression, RQ (Collagen 3 (COL3A1); [4]): 2.599 | increase of Collagen 3 expression (Collagen 3 (COL3A1); Vit C (50 μg/mL)): +160% | COL5A1 expression, RQ (Collagen 5 (COL5A1); [4]): 1.911 | increase of Collagen 5 expression (Collagen 5 (COL5A1); Vit C (50 μg/mL)): +91% | COL1A1 expression, RQ (Collagen 1 (COL1A1); [4]): 3.471 | increase of Collagen 1 expression (Collagen 1 (COL1A1); Vit C (50 μg/mL)): +247%
